Test results reported in the NIST ThermoML archive (doi:10.1016/j.jct.2016.07.008).

Assay: xn = mol fraction of the nth substance listed
Details: Liquid, Vibrating wire viscometry

CC(C)CC(C)(C)C [2,2,4-trimethylpentane] + CCCCO
viscosity [mPa·s]
Details	x2 = 0.3002	x2 = 0.5003	x2 = 0.8
293.15 K, 100 kPa	0.651	0.8986	1.777
293.15 K, 1000 kPa	0.6579	0.9064	1.805
293.15 K, 5000 kPa	0.6912	0.9556	1.837
293.15 K, 10000 kPa	0.7318	0.9979	1.949
293.15 K, 20000 kPa	0.8168	1.14	2.161
293.15 K, 30000 kPa	0.9098	1.274	2.353
293.15 K, 40000 kPa	1.004	1.415	2.578
293.15 K, 50000 kPa	1.108	1.562	2.826
293.15 K, 60000 kPa	1.215	1.739	3.038
293.15 K, 70000 kPa	1.324	1.895	3.308
293.15 K, 80000 kPa	1.433	2.055	3.537
293.15 K, 100000 kPa	1.679	2.387	4.066
293.15 K, 120000 kPa	1.942	2.735	4.653
293.15 K, 140000 kPa	2.211	3.099	5.322
313.15 K, 100 kPa	0.4938	0.6427	1.151
313.15 K, 1000 kPa	0.4951	0.6458	1.161
313.15 K, 5000 kPa	0.5303	0.6742	1.216
313.15 K, 10000 kPa	0.5681	0.7086	1.279
313.15 K, 20000 kPa	0.6344	0.8024	1.402
313.15 K, 30000 kPa	0.7073	0.8924	1.54
313.15 K, 40000 kPa	0.7728	0.9864	1.674
313.15 K, 50000 kPa	0.8419	1.084	1.825
313.15 K, 60000 kPa	0.9375	1.186	1.972
313.15 K, 70000 kPa	1.005	1.292	2.114
313.15 K, 80000 kPa	1.081	1.402	2.283
313.15 K, 100000 kPa	1.235	1.634	2.619
313.15 K, 120000 kPa	1.413	1.882	2.954
313.15 K, 140000 kPa	1.587	2.146	3.328
